Measured values as given in US20180193332A1, “LOW-TEMPERATURE STABLE OPIOID ANTAGONIST SOLUTIONS” (priority 2017, published 2018).
Counter-ions that a name gives are not always drawn.

Key:
[1] = Naloxone stability (visual precipitation) during storage at 4° C.; type: physicochemical
[2] = Naloxone HCl precipitation after freeze/thaw; type: physicochemical
Excerpt: However, the solution remained opaque when thawed, and precipitation was evident. […] The precipitate could not be re-dissolved in solution following sonication. […]

[3] = per 100 mL: EDTA-Na2 0 mg, PG 5% w/v
[4] = per 100 mL: EDTA-Na2 0 mg, PG 10% w/v
[5] = per 100 mL: EDTA-Na2 0 mg, PG 20% w/v
[6] = per 100 mL: EDTA-Na2 100 mg, PG 5% w/v
[7] = per 100 mL: EDTA-Na2 100 mg, PG 10% w/v
[8] = per 100 mL: EDTA-Na2 100 mg, PG 20% w/v

**Q.** For `C=CCN1CC[C@]23c4c5ccc(O)c4O[C@H]2C(=O)CC[C@@]3(O)[C@H]1C5` [Naloxone], which “Observed naloxone precipitation 24 days” value [1, 3] is on record?
**A.** Its value is “No”.

**Q.** And the “Observed naloxone precipitation 35 days” value [1, 3]?
**A.** The value was “No”.

**Q.** And the “Observed naloxone precipitation 53 days” value [1, 3]?
**A.** The value was “No”.

**Q.** And the “Observed naloxone precipitation 24 days” value [1, 4]?
**A.** The value was “No”.

**Q.** And the “Observed naloxone precipitation 35 days” value [1, 4]?
**A.** Its value is “No”.

**Q.** And the “Observed naloxone precipitation 53 days” value [1, 4]?
**A.** Its value is “No”.

**Q.** And the “Observed naloxone precipitation 24 days” value [1, 5]?
**A.** The value was “No”.

**Q.** What about the “Observed naloxone precipitation 35 days” value [1, 5] of the same compound?
**A.** The value was “No”.

**Q.** And the “Observed naloxone precipitation 53 days” value [1, 5]?
**A.** The value was “No”.

**Q.** What about the “Observed naloxone precipitation 24 days” value [1, 6] of the same compound?
**A.** The value was “No”.

**Q.** What about the “Observed naloxone precipitation 35 days” value [1, 6] of the same compound?
**A.** The value was “No”.

**Q.** What about the “Observed naloxone precipitation 53 days” value [1, 6] of the same compound?
**A.** Its value is “No”.

**Q.** What about the “Observed naloxone precipitation 24 days” value [1, 7] of the same compound?
**A.** Its value is “No”.

**Q.** And the “Observed naloxone precipitation 35 days” value [1, 7]?
**A.** Its value is “No”.

**Q.** What about the “Observed naloxone precipitation 53 days” value [1, 7] of the same compound?
**A.** The value was “No and Slight”.

**Q.** What about the “Observed naloxone precipitation 24 days” value [1, 8] of the same compound?
**A.** Its value is “No and Slight”.

**Q.** What about the “Observed naloxone precipitation 35 days” value [1, 8] of the same compound?
**A.** Its value is “No and Yes”.

**Q.** And the “Observed naloxone precipitation 53 days” value [1, 8]?
**A.** Its value is “No and Yes”.

**Q.** Which “Naloxone precipitation?” value ([2]; per mL: NaCl 3.7 mg, EDTA-Na2 2.0 mg, PG 20% w/v, EtOH 0% w/v, 1 freeze/thaw cycle) does the source give for `C=CCN1CC[C@]23c4c5ccc(O)c4O[C@H]2C(=O)CC[C@@]3(O)[C@H]1C5` [naloxone HCl] here?
**A.** The value was “yes”.

**Q.** What about the “Naloxone precipitation?” value ([2]; per mL: NaCl 7.4 mg, EDTA-Na2 0.0 mg, PG 5% w/v, EtOH 0% w/v, 3 freeze/thaw cycles) of the same compound?
**A.** Its value is “No”.

**Q.** And the “Naloxone precipitation?” value ([2]; per mL: NaCl 7.4 mg, EDTA-Na2 0.0 mg, PG 10% w/v, EtOH 0% w/v, 3 freeze/thaw cycles)?
**A.** The value was “no”.

**Q.** And the “Naloxone precipitation?” value ([2]; per mL: NaCl 7.4 mg, EDTA-Na2 0.0 mg, PG 20% w/v, EtOH 0% w/v, 3 freeze/thaw cycles)?
**A.** Its value is “no”.

**Q.** And the “Naloxone precipitation?” value ([2]; per mL: NaCl 7.4 mg, EDTA-Na2 1.0 mg, PG 5% w/v, EtOH 0% w/v, 3 freeze/thaw cycles)?
**A.** The value was “no”.

**Q.** And the “Naloxone precipitation?” value ([2]; per mL: NaCl 7.4 mg, EDTA-Na2 1.0 mg, PG 10% w/v, EtOH 0% w/v, 3 freeze/thaw cycles)?
**A.** The value was “no”.

**Q.** And the “Naloxone precipitation?” value ([2]; per mL: NaCl 7.4 mg, EDTA-Na2 1.0 mg, PG 20% w/v, EtOH 0% w/v, 4 freeze/thaw cycles)?
**A.** The value was “no”.

**Q.** And the “Naloxone precipitation?” value ([2]; per mL: NaCl 7.4 mg, EDTA-Na2 1.0 mg, PG 20% w/v, EtOH 0% w/v, 7 freeze/thaw cycles)?
**A.** Its value is “no”.

**Q.** What about the “Naloxone precipitation?” value ([2]; per mL: NaCl 7.4 mg, EDTA-Na2 2.0 mg, PG 10% w/v, EtOH 0% w/v, 1 freeze/thaw cycle) of the same compound?
**A.** The value was “yes”.

**Q.** And the “Naloxone precipitation?” value ([2]; per mL: NaCl 7.4 mg, EDTA-Na2 2.0 mg, PG 20% w/v, EtOH 0% w/v, 1 freeze/thaw cycle)?
**A.** The value was “yes”.

**Q.** What about the “Naloxone precipitation?” value ([2]; per mL: NaCl 7.4 mg, EDTA-Na2 2.0 mg, PG 20% w/v, EtOH 2% w/v, 1 freeze/thaw cycle) of the same compound?
**A.** Its value is “yes”.

**Q.** What about the “Naloxone precipitation?” value ([2]; per mL: NaCl 7.4 mg, EDTA-Na2 2.0 mg, PG 20% w/v, EtOH 5% w/v, 1 freeze/thaw cycle) of the same compound?
**A.** The value was “yes”.

**Q.** What about the “Naloxone precipitation?” value ([2]; per mL: NaCl 7.4 mg, EDTA-Na2 2.0 mg, PG 20% w/v, EtOH 10% w/v, 1 freeze/thaw cycle) of the same compound?
**A.** The value was “yes”.

**Q.** What about the “Naloxone precipitation?” value ([2]; per mL: NaCl 7.4 mg, EDTA-Na2 2.0 mg, PG 30% w/v, EtOH 0% w/v, 1 freeze/thaw cycle) of the same compound?
**A.** The value was “yes”.
